# Measurements published in ChEMBL document CHEMBL1145064, “Fluorine substitution can block CYP3A4 metabolism-dependent inhibition: identification of (S)-N-[1-(4-fluoro-3- morpholin-4-ylphenyl)ethyl]-3- (4-fluorophenyl)acrylamide as an orally bioavailable KCNQ2 opener devoid of CYP3A4 metabolism-dependent inhibition” (J Med Chem, 2003).
# Tests used:
# Cytochrome P450 3A4 [1] = target: T1, Cytochrome P450 3A4 (Homo sapiens, UniProt P08684)
# Description: Inhibition of recombinant human Cytochrome P450 3A4 using BFC [7-benzyloxy-4-trifluoromethylcoumarin] after 30 minutes
# [2] = Vd compound was determined in rat after i.v. dose of 1 mg/kg; format: ADME, organism-based; design: dose 1 mg/kg, route intravenous; conditions: in vivo, iv
# [3] = Oral bioavailability in rat after oral administration of 10 mg/kg dose; format: ADME, organism-based; conditions: in vivo
# [4] = Elimination half life in rat after i.v. dose of 1 mg/kg; format: ADME, organism-based; design: dose 1 mg/kg, route intravenous; conditions: in vivo, iv
# Cytochrome P450 3A4 [5] = target: T1, Cytochrome P450 3A4; remark: listed apart in the source
# Description: Inhibition of recombinant human Cytochrome P450 3A4 with BFC [7-benzyloxy-4-trifluoromethylcoumarin] after 45 minutes
# Cytochrome P450 3A4 [6] = target: T1, Cytochrome P450 3A4; remark: listed apart in the source
# Description: Inhibition of recombinant human Cytochrome P450 3A4 with BFC [7-benzyloxy-4-trifluoromethylcoumarin] after 5 minutes
# [7] = target: Potassium voltage-gated channel subfamily KQT member 2 (Mus musculus) (UniProt Q9Z351); assay: Effective concentration against Potassium voltage gated channel KQT-like subfamily, member 2 (mouse) expressed in HEK 293 cells
# Cytochrome P450 3A4 [8] = target: T1, Cytochrome P450 3A4; remark: listed apart in the source
# Description: Inhibition of recombinant human Cytochrome P450 3A4 with BFC [7-benzyloxy-4-trifluoromethylcoumarin] after 15 minutes
# [9] = Plasma clearance in rat after i.v. dose of 1 mg/kg; format: ADME, organism-based; design: dose 1 mg/kg, route intravenous; conditions: iv
# [10] = target: Potassium voltage-gated channel subfamily KQT member 2 (Homo sapiens, UniProt O43526); assay: Effective concentration against Potassium voltage gated channel, KQT-like subfamily, member 2 expressed in SH-SY5Y human neuroblastoma cells; format: cell-based
# Cytochrome P450 2C9 = Cytochrome P450 2C9 (Homo sapiens, UniProt P11712); assay: Inhibition of recombinant human Cytochrome P450 2C9; format: ADME
# Cytochrome P450 3A4 [11] = target: T1, Cytochrome P450 3A4; assay: Inhibition of recombinant human Cytochrome P450 3A4 with Benzoylresorufin; format: ADME
# Cytochrome P450 2D6 = Cytochrome P450 2D6 (Homo sapiens, UniProt P10635); assay: Inhibition of recombinant human Cytochrome P450 2D6; format: ADME
# Cytochrome P450 1A2 = target: T2, Cytochrome P450 1A2 (Homo sapiens, UniProt P05177); assay: Inhibition of recombinant human Cytochrome P450 1A2; format: ADME
# T2 sequence (P05177 whole entry): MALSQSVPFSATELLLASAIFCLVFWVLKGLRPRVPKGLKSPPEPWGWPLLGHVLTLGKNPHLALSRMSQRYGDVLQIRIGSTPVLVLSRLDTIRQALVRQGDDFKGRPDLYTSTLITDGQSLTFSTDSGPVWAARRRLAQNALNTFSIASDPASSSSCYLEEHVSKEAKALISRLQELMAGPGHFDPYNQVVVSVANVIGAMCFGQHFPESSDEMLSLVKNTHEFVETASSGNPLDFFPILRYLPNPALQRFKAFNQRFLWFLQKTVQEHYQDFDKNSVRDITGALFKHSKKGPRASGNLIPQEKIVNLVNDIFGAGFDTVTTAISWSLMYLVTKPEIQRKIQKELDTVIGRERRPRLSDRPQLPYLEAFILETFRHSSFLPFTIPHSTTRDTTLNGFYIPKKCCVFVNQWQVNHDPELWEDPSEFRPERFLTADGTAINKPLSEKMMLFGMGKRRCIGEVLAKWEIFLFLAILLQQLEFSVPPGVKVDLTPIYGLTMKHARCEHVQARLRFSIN
# [12] = target: Cytochrome P450 2C19 (Homo sapiens) (UniProt P33261); assay: Inhibition of recombinant human Cytochrome P450 2C19
# Cytochrome P450 3A4 [13] = target: T1, Cytochrome P450 3A4; format: ADME
# T1 sequence (P08684 whole entry): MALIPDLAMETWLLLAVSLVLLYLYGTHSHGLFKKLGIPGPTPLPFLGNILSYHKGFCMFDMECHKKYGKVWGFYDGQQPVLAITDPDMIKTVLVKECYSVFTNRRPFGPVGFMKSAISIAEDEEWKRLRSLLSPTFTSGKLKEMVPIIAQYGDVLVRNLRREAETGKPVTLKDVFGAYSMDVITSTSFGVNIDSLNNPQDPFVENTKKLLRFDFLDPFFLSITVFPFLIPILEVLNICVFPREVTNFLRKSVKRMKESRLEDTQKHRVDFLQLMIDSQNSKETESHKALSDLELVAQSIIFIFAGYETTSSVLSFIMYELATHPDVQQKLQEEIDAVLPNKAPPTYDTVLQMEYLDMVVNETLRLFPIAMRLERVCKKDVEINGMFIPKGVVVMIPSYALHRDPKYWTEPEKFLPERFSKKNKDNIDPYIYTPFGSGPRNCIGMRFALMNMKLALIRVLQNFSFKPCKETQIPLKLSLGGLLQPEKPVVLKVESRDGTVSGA
# Sequence of Potassium voltage-gated channel subfamily KQT member 2 (O43526 whole entry): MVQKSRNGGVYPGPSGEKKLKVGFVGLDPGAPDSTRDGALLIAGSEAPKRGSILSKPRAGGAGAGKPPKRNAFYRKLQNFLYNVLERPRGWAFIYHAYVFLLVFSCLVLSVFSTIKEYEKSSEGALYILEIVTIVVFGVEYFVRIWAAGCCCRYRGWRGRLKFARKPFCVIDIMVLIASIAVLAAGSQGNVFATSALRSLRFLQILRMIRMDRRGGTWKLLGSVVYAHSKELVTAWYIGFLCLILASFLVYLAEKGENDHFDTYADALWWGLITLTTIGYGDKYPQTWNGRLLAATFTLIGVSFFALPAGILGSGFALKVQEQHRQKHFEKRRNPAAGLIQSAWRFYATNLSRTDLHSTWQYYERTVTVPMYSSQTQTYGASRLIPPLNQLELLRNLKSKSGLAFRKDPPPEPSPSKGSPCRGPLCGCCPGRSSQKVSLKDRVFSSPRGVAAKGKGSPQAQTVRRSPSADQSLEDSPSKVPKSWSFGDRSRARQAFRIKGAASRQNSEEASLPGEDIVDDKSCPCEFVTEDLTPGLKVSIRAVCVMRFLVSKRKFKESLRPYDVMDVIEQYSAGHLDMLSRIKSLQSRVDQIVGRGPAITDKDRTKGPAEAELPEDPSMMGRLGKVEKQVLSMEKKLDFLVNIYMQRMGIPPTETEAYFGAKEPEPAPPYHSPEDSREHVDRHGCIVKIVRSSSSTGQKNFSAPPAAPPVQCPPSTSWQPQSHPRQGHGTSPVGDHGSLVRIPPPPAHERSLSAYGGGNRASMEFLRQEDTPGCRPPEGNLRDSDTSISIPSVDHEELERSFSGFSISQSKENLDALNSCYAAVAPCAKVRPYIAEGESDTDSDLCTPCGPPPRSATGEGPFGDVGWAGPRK
# Sequence of Potassium voltage-gated channel subfamily KQT member 2 (Mus musculus) (Q9Z351 whole entry, looked up): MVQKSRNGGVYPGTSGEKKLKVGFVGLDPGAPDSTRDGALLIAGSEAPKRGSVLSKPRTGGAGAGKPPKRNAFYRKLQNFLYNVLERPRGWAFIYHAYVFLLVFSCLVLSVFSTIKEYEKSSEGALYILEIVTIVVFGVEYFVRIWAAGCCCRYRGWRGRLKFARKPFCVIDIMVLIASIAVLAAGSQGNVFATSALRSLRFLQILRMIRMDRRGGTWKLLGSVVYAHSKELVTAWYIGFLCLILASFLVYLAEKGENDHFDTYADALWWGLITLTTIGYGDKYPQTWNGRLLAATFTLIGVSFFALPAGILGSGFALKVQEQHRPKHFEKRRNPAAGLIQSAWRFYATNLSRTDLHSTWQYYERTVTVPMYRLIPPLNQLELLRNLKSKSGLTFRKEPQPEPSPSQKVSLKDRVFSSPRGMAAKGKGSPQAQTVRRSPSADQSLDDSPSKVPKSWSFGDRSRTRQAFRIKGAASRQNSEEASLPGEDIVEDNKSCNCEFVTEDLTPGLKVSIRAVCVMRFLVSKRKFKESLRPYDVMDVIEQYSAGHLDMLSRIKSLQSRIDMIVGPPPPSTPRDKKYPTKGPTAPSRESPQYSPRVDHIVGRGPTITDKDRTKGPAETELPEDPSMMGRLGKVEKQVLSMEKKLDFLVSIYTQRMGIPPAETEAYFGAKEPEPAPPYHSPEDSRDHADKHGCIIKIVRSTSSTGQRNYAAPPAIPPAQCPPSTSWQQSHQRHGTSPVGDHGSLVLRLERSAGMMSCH
# Sequence of Cytochrome P450 2D6 (P10635 whole entry): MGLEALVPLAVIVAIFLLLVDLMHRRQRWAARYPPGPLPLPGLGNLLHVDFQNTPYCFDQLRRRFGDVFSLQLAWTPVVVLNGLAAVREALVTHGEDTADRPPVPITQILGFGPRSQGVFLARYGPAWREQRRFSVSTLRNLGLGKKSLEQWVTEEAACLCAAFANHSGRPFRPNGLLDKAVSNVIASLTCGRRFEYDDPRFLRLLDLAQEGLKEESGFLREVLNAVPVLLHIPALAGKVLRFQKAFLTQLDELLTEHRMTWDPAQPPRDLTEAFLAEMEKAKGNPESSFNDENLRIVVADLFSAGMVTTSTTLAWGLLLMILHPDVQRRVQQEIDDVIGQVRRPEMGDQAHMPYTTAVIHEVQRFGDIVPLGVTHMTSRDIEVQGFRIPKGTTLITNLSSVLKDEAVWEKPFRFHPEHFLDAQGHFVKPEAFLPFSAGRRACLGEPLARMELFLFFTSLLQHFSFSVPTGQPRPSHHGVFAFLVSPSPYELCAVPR
# Sequence of Cytochrome P450 2C19 (Homo sapiens) (P33261 whole entry, looked up): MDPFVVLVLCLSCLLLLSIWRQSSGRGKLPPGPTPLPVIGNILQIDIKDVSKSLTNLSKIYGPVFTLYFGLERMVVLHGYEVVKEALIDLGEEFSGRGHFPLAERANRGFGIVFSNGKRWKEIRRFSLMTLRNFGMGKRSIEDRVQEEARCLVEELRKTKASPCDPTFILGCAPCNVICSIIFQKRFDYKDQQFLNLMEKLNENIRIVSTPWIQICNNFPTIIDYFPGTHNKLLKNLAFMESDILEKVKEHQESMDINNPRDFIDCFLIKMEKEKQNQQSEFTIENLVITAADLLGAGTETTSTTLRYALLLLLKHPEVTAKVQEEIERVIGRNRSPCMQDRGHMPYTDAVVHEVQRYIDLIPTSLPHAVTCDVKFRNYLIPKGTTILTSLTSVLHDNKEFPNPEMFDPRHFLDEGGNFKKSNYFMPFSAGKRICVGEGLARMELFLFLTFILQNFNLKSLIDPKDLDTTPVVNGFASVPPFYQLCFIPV
# Sequence of Cytochrome P450 2C9 (P11712 whole entry): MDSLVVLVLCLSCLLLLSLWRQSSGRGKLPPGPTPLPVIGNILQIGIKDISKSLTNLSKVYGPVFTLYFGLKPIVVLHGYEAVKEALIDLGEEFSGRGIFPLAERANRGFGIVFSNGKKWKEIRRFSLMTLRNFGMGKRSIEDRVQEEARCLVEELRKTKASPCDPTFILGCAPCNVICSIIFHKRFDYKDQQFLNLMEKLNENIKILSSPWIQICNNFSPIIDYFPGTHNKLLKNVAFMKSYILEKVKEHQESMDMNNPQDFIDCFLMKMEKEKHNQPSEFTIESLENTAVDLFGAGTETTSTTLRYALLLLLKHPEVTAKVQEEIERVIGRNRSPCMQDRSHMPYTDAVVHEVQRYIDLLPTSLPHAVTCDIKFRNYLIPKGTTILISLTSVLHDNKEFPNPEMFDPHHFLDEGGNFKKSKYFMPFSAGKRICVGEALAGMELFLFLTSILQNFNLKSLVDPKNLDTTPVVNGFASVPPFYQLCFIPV
IC50 (Cytochrome P450 3A4 [1]),Vd [2],bioavailability [3],half-life [4],IC50 (Cytochrome P450 3A4 [5]),IC50 (Cytochrome P450 3A4 [6]),EC50 [7],IC50 (Cytochrome P450 3A4 [8]),clearance [9],EC50 [10],IC50 (Cytochrome P450 2C9),IC50 (Cytochrome P450 3A4 [11]),IC50 (Cytochrome P450 2D6),IC50 (Cytochrome P450 1A2),IC50 [12],IC50 (Cytochrome P450 3A4 [13]),SMILES
19 µM,3.3 L/kg,84%,210 min,19 µM,18 µM,1200 nM,21 µM,17.8 mL/min/kg,1550 nM,,,,,,,C[C@H](NC(=O)/C=C/c1ccc(F)cc1)c1ccc(F)c(N2CCOCC2)c1
33 µM,,,,22 µM,96 µM,3000 nM,62 µM,,690 nM,5.3 µM,76 µM,> 100 µM,78 µM,13 µM,27 µM,C[C@H](NC(=O)/C=C/c1ccccc1)c1cccc(N2CCOCC2)c1
